# Measurements taken from patent publication US9427433B2, “Methods and compositions for enhancing fertility and/or inhibiting pregnancy failure and restoring glucose tolerance” (Queen's University at Kingston, priority 2011, dated 2016).
# Experiments:
# [1] = system: diabetic NOD mice; experiment: Weekly non-fasting blood glucose monitoring; assay type: in vivo, mouse; conditions: FIG. 16A
# Experimental: Through the use of Ultra Glucosemeter (Accu-Chek Aviva/Roche Diagnostic, Laval, Quebec, Canada) blood glucose levels for all mice were monitored via tail venipuncture once a week on a regular basis beginning at the age of 8 weeks. Animals with non-fasting or those having blood glucose values ≧14.9 mmol/L after the glucose challenge (glucose tolerance) test were identified as diabetic. […] The selected mice were 9 weeks old and were treated with 0.1 mg/kg q2d of tacrolimus (Prograf (5 mg/ml), Astellas) subcutaneously administered in 0.2 ml saline for three weeks after which animals were mated to males of the same strain (See FIG. 1). Vehicle (0.2 ml saline, s.q.) treated hyperglycemic NOD female mice were allowed two weeks in diabetes before they were mated to males of the same strain. Facial (mandibular) venous blood samples were collected from treated animals at 24 and 48 hours between injections and at pregnancy days 0.5, 2.5, 4.5, 6.5, 8.5, 10.5, 12.5, 14.5, 16.5 and 18.5 respectively following a standard procedure for facial bleed in mice (Golde et al Lab Anim (NY) 2005 34:39-43).
# [2] = system: IFN-γ mRNA; experiment: Decidual/placental IFN-γ mRNA levels; assay type: in vivo, mouse; conditions: mid- to late pregnancy; NOD mice, 1 or 0.1 mg/kg q2d for three weeks with or without 10 mg/kg loading dose
# Experimental: In these studies, pregnancy progression and the glycemic control of mice treated with tacrolimus were examined. In an initial set of experiments, a loading dose of 10 mg/kg was initially administered to mice at the pre-diabetic stage followed by a maintenance dose of 1 or 0.1 mg/kg every other day (q2d) for three weeks after the last injection of which animals were allowed to mate and get pregnant. In an additional set of experiments mice were injected every other day with either 1 or 0.1 mg/kg dose for three weeks during the pre-diabetic stage and after the last injection of which mice were mated and examined for the progress of their pregnancy. Ultrasonic, vascular resistance index measurements, morphologic analyses were conducted on immunosuppressed and control NOD dams and their gestational uterine samples throughout pregnancy. Uterine, decidual and placental IFN-γ mRNA levels were also measured. Immunosuppressed NOD mice achieved and maintained normal glucose homeostasis with normal pregnancy pattern and a higher rate of viably implanted embryos and fetuses having normal phenotypic appearance. Placentae of NOD mice treated with tacrolimus were more deciduomatous, and the integrity of the stem, anchoring and branching placental villi were maintained. […]
# [3] = system: female NZO mice fed a continuous high fat diet; experiment: Weight loss, comparison of macrolides; assay type: in vivo, mouse; conditions: tacrolimus 0.05 or 0.1 mg/kg, pimecrolimus 0.1 mg/kg, sirolimus 0.1 mg/kg s.c. every other day for three weeks; vs vehicle
# Source text: For the comparative evaluation of other macrolide drugs to tacrolimus, mice starting at 7 weeks of age were maintained on the high fat diet for a total of 13 weeks of study period. Mice were entered into the experiments when determined to be glucose intolerant as described above. Methods of drug administration and other experimental methods were as described above.
# [4] = system: patients with type I diabetes; conditions: 0.15 mg/kg BID; cited from earlier work
# [5] = system: pregnant diabetic NOD mice; experiment: Pulse Wave Doppler of uterine arterial blood flow (resistance index); assay type: in vivo, mouse
# Experimental: Uterine artery resistive index (RI) was calculated for each vessel according to the equation: RI=(Peak Systolic Velocity−Peak Diastolic Velocity)/Peak Systolic Velocity to assess maternal hemodynamic characteristics of tacrolimus-treated versus the normoglycemic and the vehicle-treated diabetic NOD mice.
# Following the procedure described by Mu and Adamson (Am. J. Physiol. Heart Circ. Physiol. 291: H1421-H1428) for comparing patterns of blood flow hemodynamics in the uterine artery, transcutaneous ultrasound biomicroscopy and Doppler waveform recording were collected and analyzed from tacrolimus treated versus the diabetic and obese mice and their normoglycemic control cohort of mated pregnant mice using a microultrasound biomicroscope (Vivo770, Visual Sonic Inc., Toronto, Ontario, Canada) and a 30-40 MHz Real-Time Micro Visualization scanhead transducer operating at two frames per second (RMV704 or 708, VisualSonics Inc). […] Maternal heart and respiration rates were recorded via a physiological controller unit connected to the mechanical platform. […] Systolic and diastolic flow parameters were assessed in the selected point along the course of the uterine artery at 3-5 min intervals and the resistance index (RI=[PSV−EDV]/PSV) was calculated when EDV>0 to measure the pulsatility of arterial blood velocity waveforms.
# [6] = system: grossly obese and glucose intolerant NZO female mice; experiment: Weight loss in grossly obese mice; assay type: in vivo, mouse; conditions: 0.1 mg/kg every other day for four weeks; vs vehicle, p<0.05
# Experimental: Data shown are mean±SEM of changes in body mass in mice administered tacrolimus (0.1 mg/kg every other day) for four weeks starting at week 16 (N=10/group). Statistical difference between groups was measured by one-way ANOVA at 95% confidence.
# For studies on a grossly obese state, mice were maintained on the 60% high fat diet for 24 weeks starting at 7 weeks of age and designated as being type II diabetic according to methods described above.
# [7] = rats, subcutaneous 0.1 mg/kg every other day (q2d); cited from earlier work
# [8] = system: NOD, NZO and DIO mice; experiment: Still births, malformations and live births of near-term pups; assay type: in vivo, mouse
# Source text: FIGS. 13A through 13G show results of short term administration of tacrolimus reducing the rates of stillbirths and malformations associated with the diabetic gestation and restoration of normal term pregnancy with high rate of live births in the treated diabetic and obese mice. Numbers and external morphological features of near term (Gd.16.5) pups delivered to tacrolimus-treated versus those delivered to vehicle-treated diabetic and their normoglycemic control mice are depicted in FIGS. 13A through 13C, respectively. Fetal viability rates and external features of pups delivered to diabetic and obese mice with those of the tacrolimus-treated obese and type 2 diabetic mice are depicted in FIGS. 13D and 13E, respectively. Graph bars of FIGS. 13F and 13G display figure statistics.
# The successful use of tacrolimus in reducing still birth rates and preventing fetal malformations in the diabetic and obese mice is supportive of the etiological role for IFN-γ in the pathophysiology of fetal loss in diabetes and obese subjects. FIG. 13 provides a comparison between the external morphological features and liver versus still birth rates in near-term (Gd.16.5) pups delivered to tacrolimus-treated NOD (FIG. 13A) versus vehicle-treated diabetic NOD (FIG. 13B) and their normoglycemic control mice (FIG. 13C). […]
# [9] = system: NOD mice; conditions: NOD mice at younger age, model for Type 1 diabetes; cited from earlier work
structure (smiles),measurement,setting,value
C=CC[C@@H]1/C=C(\C)C[C@H](C)C[C@H](OC)[C@H]2O[C@@](O)(C(=O)C(=O)N3CCCC[C@H]3C(=O)O[C@H](/C(C)=C/[C@@H]3CC[C@@H](O)[C@H](OC)C3)[C@H](C)[C@@H](O)CC1=O)[C@H](C)C[C@@H]2OC [tacrolimus],weekly non-fasting blood glucose (glycemic phenotype),[1],effective in restoring normal glycemic phenotype
same,decidual/placental IFN-γ mRNA,[2],Lower normal levels of decidual/placental IFN-γ mRNA
same,weight loss,[3],significantly induced weight loss
same,outcome of clinical study in type I diabetes,[4],inconclusive
same,treated pregnant diabetic mice with sustained decidual arteriolar flow velocity and normalized vascular resistance to uterine blood flow,"[5]; Doppler waveform, p<0.05 vs vehicle-treated diabetic mice",88%
same,uterine arterial hemodynamics,[5]; throughout pregnancy,improved uterine arterial hemodynamics
same,weight loss,[6],induced a significant weight loss
same,maximal blood concentration,[7],0.6 nanograms/ml
same,rates of still births and malformations,[8]; near-term (Gd.16.5) pups,reduced the rates of still births and malformations
same,term pregnancy and live births,[8]; treated diabetic and obese mice,restored normal term pregnancy with high rate of live births
same,"suppression of overt diabetes, share of treated NOD mice",[9],84%
